Measurements as given in PMC3268193 (British Journal of Pharmacology, 2012).
Changes are numbered by the printed parent chain. “And” between values parts separate entries of the source, which are not always exact repeats. Equal values may be shown once.

Key:
human P2X1 receptor WT = molecular target: T1, human P2X1 receptor WT (Homo sapiens, UniProt P51575); assay: Two-electrode voltage clamp, WT P2X1 receptor in Xenopus oocytes; type: cell-based
T1 sequence (P51575 1-399): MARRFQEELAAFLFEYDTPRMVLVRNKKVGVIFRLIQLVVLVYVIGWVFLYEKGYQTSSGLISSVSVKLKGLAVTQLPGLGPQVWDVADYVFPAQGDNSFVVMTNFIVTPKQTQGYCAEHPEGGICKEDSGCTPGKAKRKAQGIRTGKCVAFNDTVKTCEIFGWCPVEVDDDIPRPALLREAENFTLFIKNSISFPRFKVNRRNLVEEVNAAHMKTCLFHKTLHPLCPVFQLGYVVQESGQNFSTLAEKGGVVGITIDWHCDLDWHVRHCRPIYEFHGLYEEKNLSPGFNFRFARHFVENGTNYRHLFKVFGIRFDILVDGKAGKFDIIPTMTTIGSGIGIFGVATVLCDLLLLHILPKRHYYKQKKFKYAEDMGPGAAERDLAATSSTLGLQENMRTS

human P2X2 receptor WT = molecular target: T2, human P2X2 receptor WT (Homo sapiens, UniProt Q9UBL9); assay: Two-electrode voltage clamp, WT P2X2 receptor in Xenopus oocytes; type: cell-based
T2 sequence (Q9UBL9 1-471): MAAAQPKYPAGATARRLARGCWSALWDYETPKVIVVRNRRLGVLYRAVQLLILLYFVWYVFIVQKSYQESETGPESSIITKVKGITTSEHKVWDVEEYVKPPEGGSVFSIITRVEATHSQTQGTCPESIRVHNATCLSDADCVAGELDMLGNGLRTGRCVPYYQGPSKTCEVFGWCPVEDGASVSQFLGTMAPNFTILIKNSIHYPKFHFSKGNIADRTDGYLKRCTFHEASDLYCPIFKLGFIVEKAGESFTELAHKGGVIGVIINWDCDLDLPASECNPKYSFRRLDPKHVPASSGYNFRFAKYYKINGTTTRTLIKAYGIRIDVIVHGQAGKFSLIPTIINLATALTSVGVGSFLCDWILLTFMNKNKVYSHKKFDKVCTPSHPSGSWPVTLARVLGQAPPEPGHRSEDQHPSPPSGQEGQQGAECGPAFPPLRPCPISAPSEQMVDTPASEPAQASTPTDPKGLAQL

P2X1 Cys2(1-3) chimera = molecular target: T3, P2X1 Cys2(1-3) chimera (Homo sapiens, UniProt P51575, A118P/DEL120-123/E128S/G124S/G131D/INS125RVHNAT/K127L/S130A); assay: Two-electrode voltage clamp, chimera P2X1 Cys2; type: cell-based
T3 sequence (P51575 with tags, fused parts or gaps A118P/DEL120-123/G124S/INS125RVHNAT/K127L/E128S/S130A/G131D): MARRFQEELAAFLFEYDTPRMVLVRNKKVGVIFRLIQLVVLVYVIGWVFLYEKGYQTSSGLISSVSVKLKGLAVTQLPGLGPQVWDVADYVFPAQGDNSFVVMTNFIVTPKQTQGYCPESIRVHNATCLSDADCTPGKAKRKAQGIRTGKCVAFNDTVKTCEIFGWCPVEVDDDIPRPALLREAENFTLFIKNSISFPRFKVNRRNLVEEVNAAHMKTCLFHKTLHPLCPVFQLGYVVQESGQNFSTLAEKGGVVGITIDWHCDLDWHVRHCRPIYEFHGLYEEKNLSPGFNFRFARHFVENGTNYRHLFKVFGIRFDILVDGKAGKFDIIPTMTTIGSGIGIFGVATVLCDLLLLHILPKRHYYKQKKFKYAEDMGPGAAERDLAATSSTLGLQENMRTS

[1] = molecular target: T4, P2X1 receptor mutant K136E (Homo sapiens, UniProt P51575, K136E); assay: Two-electrode voltage clamp, P2X1 mutant K136E; type: cell-based
T4 sequence (P51575 1-399 K136E): T1 sequence (P51575 1-399) with K136E

[2] = molecular target: T5, P2X1 receptor mutant K140L (Homo sapiens, UniProt P51575, K140L); assay: Two-electrode voltage clamp, P2X1 mutant K140L; type: cell-based
T5 sequence (P51575 1-399 K140L): T1 sequence (P51575 1-399) with K140L

[3] = molecular target: T6, P2X2 receptor mutant D136K (Homo sapiens, UniProt Q9UBL9, D148K); assay: Two-electrode voltage clamp, P2X2 mutant D136K; type: cell-based
T6 sequence (Q9UBL9 1-471 D148K): T2 sequence (Q9UBL9 1-471) with D148K

[4] = system: WT or mutant P2X receptors; assay: Holding current in the absence of ATP; type: cell-based, human
[5] = 1 nM antagonist, EC90 ATP (10 µM)

Row | Compound | Schild slope (human P2X1 receptor WT; WT P2X1) | Hill slope of NF449 inhibition curve (human P2X1 receptor WT; WT P2X1, vs EC90 ATP) | NF449 pIC50 (human P2X2 receptor WT; P2X2 WT, vs EC90 concentration of ATP) | Hill slope of NF449 inhibition curve (human P2X2 receptor WT; WT P2X2, vs EC90 ATP) | IC50 (human P2X2 receptor WT; read-out: NF449 IC50, P2X2 receptor, vs EC90 ATP (30 µM)) | Reduction in NF449 sensitivity compared with P2X1 WT (P2X1 Cys2(1-3) chimera) [fold] | Reduction of ATP-evoked current [1, 5] | Reduction of ATP-evoked current [2, 5] | Effect of mutation on NF449 sensitivity [3] | Effect on holding current ([4]; NF449 10 µM) | Difference in suramin sensitivity between human P2X1 and P2X2 receptors (human P2X1 receptor WT) [fold] | Reduction of responses to ATP (human P2X2 receptor WT; P2X2, 100 µM suramin, ATP 30 µM (EC90)) [%] | Increase in suramin sensitivity compared with WT P2X1 (P2X1 Cys2(1-3) chimera) [fold] | Effect of mutation on suramin sensitivity [1] | Effect of mutation on suramin sensitivity [2] | Effect of mutation on suramin sensitivity [3] | Effect on holding current ([4]; suramin 100 µM)
1 | O=C(Nc1cc(C(=O)Nc2ccc(S(=O)(=O)O)cc2S(=O)(=O)O)cc(C(=O)Nc2ccc(S(=O)(=O)O)cc2S(=O)(=O)O)c1)Nc1cc(C(=O)Nc2ccc(S(=O)(=O)O)cc2S(=O)(=O)O)cc(C(=O)Nc2ccc(S(=O)(=O)O)cc2S(=O)(=O)O)c1 [NF449, 4,4′,4′′,4′′′-(carbonylbis(imino-5,1,3-benzenetriyl-bis(carbonylimino)))tetrakis-benzene-1,3-disulphonic acid] | 1.17± 0.16 | 0.98 ± 0.13 | 5.86 ± 0.09 | 1.61 ± 0.08 | ~1000 nM and ~1500 nM | ~20 | 40–70% | 40–70% | no effect | no effect |  |  |  |  |  |  | 
2 | Cc1ccc(C(=O)Nc2ccc(S(=O)(=O)O)c3cc(S(=O)(=O)O)cc(S(=O)(=O)O)c23)cc1NC(=O)c1cccc(NC(=O)Nc2cccc(C(=O)Nc3cc(C(=O)Nc4ccc(S(=O)(=O)O)c5cc(S(=O)(=O)O)cc(S(=O)(=O)O)c45)ccc3C)c2)c1 [suramin] |  |  |  |  |  |  |  |  |  |  | ~60 | ~50 | 15 | no effect | no effect | no effect | no effect
